This is an account of results in patent publication US12186332B2, “Methods for overcoming WNT/beta-catenin anti-cancer resistance in leukemia stem cells” (STOWERS INSTITUTE FOR MEDICAL RESEARCH, priority 2019, dated 2025).

For test [1], the system named is functional, tumorigenic LSCs. Kind of test: Tumorigenic assay: BM of treated leukemic mice transplanted into NSG recipients. The settings on record: [Low]DXR alone; nearly 6 months post-transplant. Format: in vivo, mouse.
Description: At 12 days post-treatment, BM was harvested from treated mice and transplanted into sub-lethally irradiated NSG recipients. Treatment and transplantation schematic and Kaplan-Meier curves of recipient mice were shown. Red arrow indicates day 0 in survival curve.
The free [Low]DXR treatment group (solid line) from FIG. 5F is shown for comparison (n=30 per group).
Tumorigenic assays were performed by transplanting 0.5, 1.5, or 4.5×10^4 bone marrow cells from treated mice at 12 days post-treatment into 3.25 Gy irradiated NSG recipient mice. 10 recipients were used for each dose from each group. One male and one female donor was used for each group. Leukemia was assessed in mice euthanized due to poor health by analyzing CD45^HiCD^3+ cell frequency. Mice having >20% Blasts in the bone marrow were considered leukemic. NSG and Ptprc mice were originally obtained from The Jackson Laboratory.
In test [2] the test system is LSCs and blast cells of leukemia mice. Kind of test: Immune-checkpoint blocker treatment / CD8+ T cell depletion in leukemia mice. Format: in vivo, mouse. The settings on record: [Low]DXR after anti-CD8 depletion. Here is the method: For immune-checkpoint blocker treatment, 250 μg anti-PD-1 or isotype control (BioXcell) was injected intravenously every other day for a total of 3 injections. For CD8^+ T cell depletion, 2×100 μg and 1×250 μg of anti-CD8a or isotype control (BioXcell) was injected intravenously every other day.

The next test deals with pS^552-β-catenin. Kind of test: Western analysis of compound-treated TOP and FOP cells. Format: cell-based. Here is the method:
TOP and FOP cells were treated with thioguanosine at EC90, EC50 and EC25 derived from FIG. 2A for 48 hours, washed and flash frozen for Western analysis. EC50 data is shown.
TOP and FOP cells were treated with compound 0105375 at EC90, EC50 and EC25 derived from FIG. 2B for 48 hours, washed and flash frozen for Western analysis. EC50 data is shown.
TOP and FOP cells were treated with doxorubicin at EC90, EC50 and EC25 derived from FIG. 2C for 48 hours, washed and flash frozen for Western analysis. EC50 data is shown.

Test [3] deals with LSCs and HSPCs transcriptome. Kind of test: RNA-seq of populations sorted from treated leukemic mice. Format: in vivo, mouse. Here is the method:
HSPCs, LSCs, and blast cells were sorted by FACS at […] post-treatment of leukemic mice; representative sorting gates are shown. Note distinct LSC population (compare to isotype) in vehicle versus low-dose DXR+chemotherapy treatment when LSCs show very low frequency. Other plots are from vehicle control. To obtain sufficient cells from the clinical DXR sample, the 5×4 […] DXR daily dosing schedule was used.
Data from two biological replicates of each, differing by <0.3 standard deviations, are shown.
Cohorts of leukemic mice were treated with vehicle, chemotherapy, [Low]DXR, clinical-dose DXR or chemotherapy+[Low]DXR as in FIG. 8. At 10 days post-treatment (day 1=start of treatment), blast cells, LSCs, and HSPCs were sorted using stringent gates (see FIG. 4A) for these populations. For each population, two biological replicates were made with 1-3 technical replicates each. Each biological replicate was a pool of sorted cells from 4-5 male and 4-5 female mice. Technical replicates were samples of sorted cells from each biological replicate. 1,000 cells per sample were sorted into 96-well plates with 7 μl lysis buffer containing RNase inhibitor (2 U/μl) from BM. First-strand cDNA synthesis and cDNA libraries were constructed using the SMARTer ultra low input RNA kit for sequencing—v3 (Clontech) following the manufacturer's instructions. cDNA quality was determined by Agilent high sensitivity DNA kit on Agilent 2100 BioAnalyzer (Agilent Technologies). Libraries were sequenced at 50 bp on the Illumina HiSeq 2500. Reads were aligned to UCSC mm10 with Tophat 2.1.1 (Kim et al. 2013), using gene models from Ensembl 80. Read counts per gene were obtained with HTSeq-count 0.6.0 (Anders et al. 2015). Analysis was done in R with the EdgeR package (Robinson et al. 2010) using default methods. […] Data can be accessed at https://www.ncbi.nlm.nih.qov/geo/query/acc.cqi?acc=GSE105049.

Test [4] deals with Akt-enhanced β-catenin activity (TOP-Luc). Kind of test: HTS TOPFlash/FOPFlash luciferase reporter dose-response. Format: cell-based.
In test [5] the test system is patient BM with or without chemoresistant pS^552-β-cat^+ LSCs. Kind of test: 2° PDX recipients treated with low-dose DXR ([Low]nanoDXR). It is filed as in vivo, human. Here is the method:
FIG. 12F is the Kaplan-Meier survival curve for 2° PDX recipients treated with vehicle or [Low]nanoDXR. Bone marrow was harvested from 1° recipients of diagnostic BM, transplanted into a larger set of 2° PDX recipients and treated with [Low] NanoDXR starting at day 14 post-transplant and continuing for up to 10 weeks.
FIG. 12G is the Kaplan-Meier survival curve for 2° PDX recipients treated with vehicle or [Low]nanoDXR. Bone marrow was harvested from 1° recipients of post-chemotherapy BM, transplanted into a larger set of 2° PDX recipients and treated with [Low] NanoDXR starting at day 14 post-transplant and continuing for up to 10 weeks.
Human CD45^+ and human LSC engraftment was determined after succumbing to leukemia or at experimental endpoint. Graphs indicate frequency (%)+Std. Dev.
FIG. 12L is the Kaplan-Meier survival curve for 2° PDX recipients treated with vehicle or [Low]nanoDXR. Bone marrow was harvested from 1° recipients of diagnostic BM (FIG. 12D), transplanted into a larger set of 2° PDX recipients and treated with [Low] NanoDXR starting at day 14 post-transplant and continuing for up to 10 weeks.
FIG. 12M is the Kaplan-Meier survival curve for 2° PDX recipients treated with vehicle or [Low]nanoDXR. Bone marrow was harvested from 1° recipients of diagnostic BM (FIG. 12E), transplanted into a larger set of 2° PDX recipients and treated with [Low] NanoDXR starting at day 14 post-transplant and continuing for up to 10 weeks.
Human CD45^+ and human LSC engraftment was determined after succumbing to leukemia or at experimental endpoint. Graphs indicate frequency (%)+Std. Dev. (N.S.=not significant).
All patient samples were obtained under research ethics board approval with informed consent. Pediatric patient BM was transplanted into NSG mice. When 1° transplant mice succumbed to leukemia, bone marrow was harvested, frozen for later use, and transplanted into a larger set of 2° NSG recipients. […] Health was monitored independently by technicians blinded to any hypothetical outcome. […]

For test [6], the system named is PD-L1, TIM-3 and CD24 on LSCs. Kind of test: FACS of immune checkpoints on LSCs. Conditions: 3 days post-treatment. Format: in vivo, mouse. From the text:
Frequency in BM (top) and frequency of the indicated immune checkpoint within the LSC population (bottom) are shown.

The mark [7] stands for this setting: particularly low concentrations, 48 hours.
[8] abbreviates: Pt samples containing chemoresistant pS552-β-cat+ LSCs.

Regarding `COc1cccc2c1C(=O)c1c(O)c3c(c(O)c1C2=O)C[C@@](O)(C(=O)CO)C[C@@H]3O[C@H]1C[C@H](N)[C@H](O)[C@H](C)O1` [DXR, doxorubicin], the “recipients that remained healthy” value in test [1] is recorded as 27/30. In test [2], the “effect on LSCs after CD8+ T cell depletion” value was “no longer significantly reduced LSCs”. The “inhibition of pS552-β-catenin relative to pan β-catenin (HTS candidates)” value with pS^552-β-catenin is listed as “could inhibit pS^552-β-catenin with less effect on pan β-catenin”. In addition, in the test on pS^552-β-catenin (setting [7]), the “effect on β-catenin generally” value is given as “only minimal effect” and the pS552-β-catenin level entry is “inhibited”. Moreover, in test [3] ([Low]DXR), the “Hallmark MYC targets in LSCs” value is “reduced” and the “most highly enriched terms in LSCs compared to control or chemotherapy” value was “upregulation of immune-related terms”. Besides, in test [3] (clinical DXR), the “expression of resistance pathways, LSCs versus HSPCs” value is “increased expression of oncogenic signaling and other resistance pathways”. Besides, the “concentration at which Akt-enhanced β-catenin activity (TOP-Luc) is specifically inhibited (compare to FOP-Luc control)” value in test [4] (HEK-293 TOPFlash vs FOPFlash Akt^Act βcat^Act cells) is recorded as “lower than 1 μM”. Further, the “specificity (FOP-Luc) at higher concentrations” value in test [4] (higher concentrations (above 1 μM)) is given as “reduced specificity”. Besides, in test [5] (setting [8]), the “leukemia engraftment and LSC frequency compared to vehicle control” value was “reduced leukemia engraftment and LSC frequency”; the “survival compared to vehicle control” value is “significantly improved survival”. The “survival, leukemia engraftment or LSC frequency” value in test [5] (Pt samples lacking chemoresistant pS552-β-cat+ LSCs) is given as “no significant difference”. In test [6] ([Low]DXR), the “LSC populations expressing PD-L1 and CD24” value is given as “reduced”; the “TIM-3+ LSCs” value was “reduced”. In test [6] (clinical-dose DXR), the “LSC populations expressing PD-L1 and CD24” value is “this reduction was reversed”; the “TIM-3+ LSCs” value was “increased substantially”.
